From PubChem BioAssay (NCI)
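Protocol summary: plate cells (96-well), add compound at 5 concentrations, incubate 48 h, interpolate endpoints linearly. GI50: concentration for 50% inhibition of growth. TGI denotes the concentration required for complete inhibition of growth.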

Assays:
Experiment in all cases: NCI tumour cell line growth inhibition, 48 h
[1] = test system: 786-0 renal
[2] = test system: A498 renal
[3] = test system: A549 NSCLC
[4] = test system: ACHN renal
[5] = test system: BT-549 breast
[6] = test system: CAKI-1 renal
[7] = test system: CCRF-CEM leukemia
[8] = test system: COLO 205 colon
[9] = test system: DU-145 prostate
[10] = test system: EKVX NSCLC
[11] = test system: HCC-2998 colon
[12] = test system: HCT-116 colon
[13] = test system: HCT-15 colon
[14] = test system: HL-60(TB) leukemia
[15] = test system: HOP-62 NSCLC
[16] = test system: HOP-92 NSCLC
[17] = test system: HS 578T breast
[18] = test system: HT29 colon
[19] = test system: IGROV1 ovarian
[20] = test system: K-562 leukemia
[21] = test system: KM12 colon
[22] = test system: LOX IMVI melanoma
[23] = test system: M14 melanoma
[24] = test system: MALME-3M melanoma
[25] = test system: MCF7 breast
[26] = test system: MDA-MB-231 breast
[27] = test system: MDA-MB-435
[28] = test system: MOLT-4 leukemia
[29] = test system: NCI-H226 lung
[30] = test system: NCI-H23 lung
[31] = test system: NCI-H460 lung
[32] = test system: NCI-H522 lung
[33] = test system: NCI/ADR-RES ovarian
[34] = test system: OVCAR-3 ovarian
[35] = test system: OVCAR-4 ovarian
[36] = test system: OVCAR-5 ovarian
[37] = test system: OVCAR-8 ovarian
[38] = test system: PC-3 prostate
[39] = test system: RPMI-8226 leukemia
[40] = test system: RXF 393 renal
[41] = test system: SF-268 CNS
[42] = test system: SF-295 CNS
[43] = test system: SF-539 CNS
[44] = test system: SK-MEL-2 melanoma
[45] = test system: SK-MEL-28 melanoma
[46] = test system: SK-MEL-5 melanoma
[47] = test system: SK-OV-3 ovarian
[48] = test system: SN12C renal
[49] = test system: SNB-19 CNS
[50] = test system: SNB-75 CNS
[51] = test system: SR leukemia
[52] = test system: SW-620 colon
[53] = test system: T-47D breast
[54] = test system: TK-10 renal
[55] = test system: U251 CNS
[56] = test system: UACC-257 melanoma
[57] = test system: UACC-62 melanoma
[58] = test system: UO-31 renal

Nc1ccc(N)c2c1C(=O)c1cccc([N+](=O)[O-])c1C2=O
GI50 [1]: 2.72 µM
TGI [1]: 32.1 µM
GI50 [2]: 0.125 µM
TGI [2]: 1.03 µM
GI50 [3]: 1.47 µM
GI50 [4]: 1.93 µM
TGI [4]: > 100 µM
GI50 [5]: 2.54 µM
TGI [5]: > 31.2 µM
GI50 [6]: 0.549 µM
TGI [6]: 4.07 µM
GI50 [7]: 7.95 µM
TGI [7]: > 100 µM
GI50 [8]: 4.17 µM
TGI [8]: > 55.4 µM
GI50 [9]: 0.662 µM
TGI [9]: 6.9 µM
GI50 [10]: 7.72 µM
TGI [10]: > 100 µM
GI50 [11]: 0.373 µM
TGI [11]: 1.49 µM
GI50 [12]: 2.73 µM
TGI [12]: > 48.2 µM
GI50 [13]: 2.16 µM
TGI [13]: > 100 µM
GI50 [14]: 3.65 µM
TGI [14]: > 41.1 µM
GI50 [15]: 1.62 µM
TGI [15]: 7.88 µM
GI50 [16]: 16.3 µM
TGI [16]: > 100 µM
GI50 [17]: 2.47 µM
TGI [17]: 26.2 µM
GI50 [18]: 5.6 µM
TGI [18]: > 100 µM
GI50 [19]: 3.92 µM
TGI [19]: > 100 µM
GI50 [20]: 5.45 µM
TGI [20]: > 100 µM
GI50 [21]: 4.15 µM
TGI [21]: > 100 µM
GI50 [22]: 1.84 µM
TGI [22]: > 100 µM
GI50 [23]: 3.37 µM
TGI [23]: > 100 µM
GI50 [24]: 5.69 µM
TGI [24]: > 100 µM
GI50 [25]: 0.32 µM
TGI [25]: 18 µM
GI50 [26]: 27 µM
TGI [26]: > 100 µM
GI50 [27]: 6.3 µM
TGI [27]: > 100 µM
GI50 [28]: 8.33 µM
TGI [28]: > 91.4 µM
GI50 [29]: 0.312 µM
GI50 [30]: 0.44 µM
TGI [30]: 2.73 µM
GI50 [31]: 0.206 µM
TGI [31]: 1.27 µM
GI50 [32]: 1.46 µM
TGI [32]: 17.9 µM
GI50 [33]: 4.52 µM
TGI [33]: > 100 µM
GI50 [34]: 5.19 µM
TGI [34]: > 100 µM
GI50 [35]: 11.9 µM
TGI [35]: > 100 µM
GI50 [36]: 8.19 µM
TGI [36]: > 100 µM
GI50 [37]: 2.67 µM
TGI [37]: 19.7 µM
GI50 [38]: 15.6 µM
TGI [38]: > 100 µM
GI50 [39]: 2.82 µM
TGI [39]: > 100 µM
GI50 [40]: 7.16 µM
TGI [40]: 54.9 µM
GI50 [41]: 5.07 µM
TGI [41]: > 89.4 µM
GI50 [42]: 0.776 µM
TGI [42]: > 100 µM
GI50 [43]: 1.92 µM
TGI [43]: > 22.4 µM
GI50 [44]: 7.74 µM
TGI [44]: > 100 µM
GI50 [45]: 11.5 µM
TGI [45]: > 100 µM
GI50 [46]: 1.43 µM
TGI [46]: 3.76 µM
GI50 [47]: 3.43 µM
TGI [47]: > 100 µM
GI50 [48]: 2.48 µM
TGI [48]: > 100 µM
GI50 [49]: 2.4 µM
TGI [49]: > 30.4 µM
GI50 [50]: 2.13 µM
TGI [50]: 24.5 µM
GI50 [51]: 0.529 µM
TGI [51]: > 20.6 µM
GI50 [52]: 2.41 µM
TGI [52]: > 100 µM
GI50 [53]: 6.99 µM
TGI [53]: > 100 µM
GI50 [54]: 3.21 µM
TGI [54]: > 71.8 µM
GI50 [55]: 2.85 µM
TGI [55]: > 100 µM
GI50 [56]: 0.784 µM
GI50 [57]: 1.2 µM
TGI [57]: 5.65 µM
GI50 [58]: 2.68 µM
TGI [58]: > 22.6 µM

O=C1COc2c(CCNCCN(C(=O)CCNCCc3ccc(Cl)c(Cl)c3)C3CCCCC3)ccc(O)c2N1
GI50 [1]: 17.2 µM
TGI [1]: 32.9 µM
GI50 [2]: 13.9 µM
TGI [2]: 28.4 µM
GI50 [3]: 21.8 µM
TGI [3]: 44.8 µM
GI50 [4]: 15.2 µM
TGI [4]: 29.1 µM
GI50 [5]: 14.3 µM
TGI [5]: 29 µM
GI50 [6]: > 45.9 µM
TGI [6]: > 74.9 µM
GI50 [7]: 11 µM
TGI [7]: 27.6 µM
GI50 [8]: 14.8 µM
TGI [8]: 32.3 µM
GI50 [9]: 17.7 µM
TGI [9]: 32 µM
GI50 [10]: 15.4 µM
TGI [10]: 30 µM
GI50 [11]: 18.7 µM
TGI [11]: 35.1 µM
GI50 [12]: 14.6 µM
TGI [12]: 28.4 µM
GI50 [13]: 15.7 µM
TGI [13]: 31.2 µM
GI50 [14]: 14.2 µM
TGI [14]: 32.1 µM
GI50 [15]: 15.3 µM
TGI [15]: 32.7 µM
GI50 [16]: < 0.0353 µM
TGI [16]: 17.5 µM
GI50 [17]: 15.4 µM
TGI [17]: 34.9 µM
GI50 [18]: 16.7 µM
TGI [18]: 33.8 µM
GI50 [19]: 15 µM
TGI [19]: 30.1 µM
GI50 [20]: 16.2 µM
TGI [20]: 34.1 µM
GI50 [21]: 19 µM
TGI [21]: 35.5 µM
GI50 [22]: 15.6 µM
TGI [22]: 30.2 µM
GI50 [23]: 16.6 µM
TGI [23]: 31.8 µM
GI50 [24]: 21.9 µM
TGI [24]: 39.6 µM
GI50 [25]: 11.9 µM
TGI [25]: 27.8 µM
GI50 [26]: 10.5 µM
TGI [26]: 25.6 µM
GI50 [27]: 14.9 µM
TGI [27]: 28.5 µM
GI50 [28]: 15.8 µM
TGI [28]: 34.5 µM
GI50 [29]: 17.7 µM
TGI [29]: 35.9 µM
GI50 [30]: 18.1 µM
TGI [30]: 33.9 µM
GI50 [31]: 16.5 µM
TGI [31]: 31.1 µM
GI50 [32]: 15.2 µM
TGI [32]: 32.3 µM
GI50 [33]: > 100 µM
TGI [33]: > 100 µM
GI50 [34]: 16.8 µM
TGI [34]: 32.1 µM
GI50 [35]: 15 µM
TGI [35]: 28.9 µM
GI50 [36]: 13.6 µM
TGI [36]: 28.4 µM
GI50 [37]: 17.2 µM
TGI [37]: 34 µM
GI50 [38]: 16 µM
TGI [38]: 30.3 µM
GI50 [39]: 14.5 µM
TGI [39]: 33.8 µM
GI50 [40]: 14.8 µM
TGI [40]: 30.7 µM
GI50 [41]: 14.7 µM
TGI [41]: 30.3 µM
GI50 [42]: 15.7 µM
TGI [42]: 30.8 µM
GI50 [43]: 15.1 µM
TGI [43]: 29.7 µM
GI50 [44]: 17.2 µM
TGI [44]: 34.9 µM
GI50 [45]: 14.8 µM
TGI [45]: 29.3 µM
GI50 [46]: 15.6 µM
TGI [46]: 29.4 µM
GI50 [47]: 16 µM
TGI [47]: 30.8 µM
GI50 [48]: 14.7 µM
TGI [48]: 30.3 µM
GI50 [49]: 15 µM
TGI [49]: 31 µM
GI50 [50]: 3.65 µM
TGI [50]: 19.4 µM
GI50 [51]: 12.2 µM
TGI [51]: 33.7 µM
GI50 [52]: 16 µM
TGI [52]: 31 µM
GI50 [53]: 17.3 µM
TGI [53]: 40.1 µM
GI50 [54]: 14.1 µM
TGI [54]: 28.8 µM
GI50 [55]: 16.3 µM
TGI [55]: 32 µM
GI50 [56]: 16.9 µM
TGI [56]: 33 µM
GI50 [57]: 15.5 µM
TGI [57]: 30.4 µM
GI50 [58]: 16 µM
TGI [58]: 31 µM
